pIC50: −log10 of the molar value.
Assays:
[1] = molecular target: T1, human Cereblon WT GST-tagged protein (Homo sapiens, UniProt Q96SW2); assay: CRBN-binding affinity, HTRF (CEREBLON BINDING kit); conditions: displacement of Thalidomide-Re reagent, 3 hours at room temperature
T1 construct: purchased CISBIO 64BDCRBNPEH
How it was run: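 Compounds displace a thalidomide-Re tracer from GST-tagged human Cereblon WT, detected with an Eu-labelled anti-GST antibody by time-resolved fluorescence. Signal at 620 nm was normalised against solvent and blank controls.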

IKZF2 = molecular target: T2, IKZF2 (Homo sapiens, UniProt Q96SW2+Q9UKS7); assay: Western-blot assay, substrate protein in hPBMCs; assay type: cell-based; conditions: hPBMC cells, 24 hours, tested at 50 nM and 500 nM, table does not say which
T2 construct: endogenous in cells; host or cells: human PBMCs (Milecell Biotechnologies)
How it was run: (§1)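 Cellular protein levels after a 24 h degrader treatment of human PBMCs were assessed by Western blot densitometry relative to an internal control. Results are expressed as % remaining, % degraded, or DC50 versus DMSO-treated cells.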

Wee1 = molecular target: T3, Wee1 (Homo sapiens, UniProt P30291+Q96SW2); assay: Western-blot assay, substrate protein in hPBMCs; assay type: cell-based; conditions: hPBMC cells, 24 hours, tested at 50 nM and 500 nM, table does not say which
T3 construct: endogenous in cells; host or cells: human PBMCs (Milecell Biotechnologies)
T3 sequence (P30291 whole entry): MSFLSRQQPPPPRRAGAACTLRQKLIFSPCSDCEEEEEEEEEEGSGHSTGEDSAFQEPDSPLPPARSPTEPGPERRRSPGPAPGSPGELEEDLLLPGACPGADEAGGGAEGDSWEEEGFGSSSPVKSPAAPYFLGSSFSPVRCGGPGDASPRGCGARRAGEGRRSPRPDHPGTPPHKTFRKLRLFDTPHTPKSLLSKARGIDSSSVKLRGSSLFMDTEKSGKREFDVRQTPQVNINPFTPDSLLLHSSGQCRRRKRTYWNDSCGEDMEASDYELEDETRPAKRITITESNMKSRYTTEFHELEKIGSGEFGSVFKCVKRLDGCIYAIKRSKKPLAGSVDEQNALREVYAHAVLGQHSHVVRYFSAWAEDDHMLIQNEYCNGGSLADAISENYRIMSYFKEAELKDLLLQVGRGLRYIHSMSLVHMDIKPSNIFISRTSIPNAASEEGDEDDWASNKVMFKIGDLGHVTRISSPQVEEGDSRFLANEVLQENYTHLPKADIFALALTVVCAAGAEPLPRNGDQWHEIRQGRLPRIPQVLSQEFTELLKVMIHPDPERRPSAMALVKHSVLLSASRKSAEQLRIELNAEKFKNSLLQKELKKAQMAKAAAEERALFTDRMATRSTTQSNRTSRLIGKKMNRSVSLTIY
T3 sequence (Q96SW2 whole entry): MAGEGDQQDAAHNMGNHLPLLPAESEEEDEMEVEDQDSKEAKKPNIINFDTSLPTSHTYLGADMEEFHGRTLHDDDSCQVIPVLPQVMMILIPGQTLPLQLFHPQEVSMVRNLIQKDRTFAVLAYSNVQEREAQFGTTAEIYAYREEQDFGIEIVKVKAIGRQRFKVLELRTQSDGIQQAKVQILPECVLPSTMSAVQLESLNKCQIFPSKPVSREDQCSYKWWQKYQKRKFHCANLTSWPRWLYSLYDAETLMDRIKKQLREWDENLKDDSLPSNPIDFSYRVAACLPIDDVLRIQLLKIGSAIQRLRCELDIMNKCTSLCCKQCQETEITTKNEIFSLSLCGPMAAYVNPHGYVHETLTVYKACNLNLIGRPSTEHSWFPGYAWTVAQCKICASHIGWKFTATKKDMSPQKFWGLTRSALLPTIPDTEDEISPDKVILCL
T3 sequence (Q16531 whole entry partner): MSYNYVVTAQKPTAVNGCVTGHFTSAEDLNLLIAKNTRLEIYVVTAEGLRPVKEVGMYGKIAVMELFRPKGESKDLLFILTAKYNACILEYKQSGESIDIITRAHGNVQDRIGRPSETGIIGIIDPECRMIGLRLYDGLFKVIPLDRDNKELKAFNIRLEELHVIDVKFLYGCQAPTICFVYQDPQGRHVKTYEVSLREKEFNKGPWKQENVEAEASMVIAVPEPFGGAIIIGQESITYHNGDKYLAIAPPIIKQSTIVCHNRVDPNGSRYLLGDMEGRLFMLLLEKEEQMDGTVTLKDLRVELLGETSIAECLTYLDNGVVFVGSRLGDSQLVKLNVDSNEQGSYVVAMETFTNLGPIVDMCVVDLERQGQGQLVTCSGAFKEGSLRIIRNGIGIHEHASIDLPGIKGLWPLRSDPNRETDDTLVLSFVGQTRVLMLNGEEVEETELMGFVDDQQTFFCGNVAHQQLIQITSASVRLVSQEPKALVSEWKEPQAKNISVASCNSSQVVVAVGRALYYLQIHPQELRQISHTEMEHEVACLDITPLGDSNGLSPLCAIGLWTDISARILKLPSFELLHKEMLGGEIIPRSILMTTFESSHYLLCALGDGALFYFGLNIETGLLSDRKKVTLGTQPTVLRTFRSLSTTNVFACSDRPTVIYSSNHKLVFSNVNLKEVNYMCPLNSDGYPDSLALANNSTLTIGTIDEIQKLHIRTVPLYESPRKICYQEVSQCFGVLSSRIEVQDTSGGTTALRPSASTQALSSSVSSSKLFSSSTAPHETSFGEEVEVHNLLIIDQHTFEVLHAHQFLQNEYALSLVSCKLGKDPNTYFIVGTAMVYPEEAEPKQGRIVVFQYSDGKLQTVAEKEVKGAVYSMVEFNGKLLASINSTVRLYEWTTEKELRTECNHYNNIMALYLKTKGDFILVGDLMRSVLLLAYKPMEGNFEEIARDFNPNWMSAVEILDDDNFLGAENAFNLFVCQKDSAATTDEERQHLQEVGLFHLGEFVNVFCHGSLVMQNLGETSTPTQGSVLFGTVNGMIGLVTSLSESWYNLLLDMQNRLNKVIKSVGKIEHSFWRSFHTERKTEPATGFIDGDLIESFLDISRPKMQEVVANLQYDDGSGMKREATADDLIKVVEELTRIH
How it was run: as §1

MV-4-11 = assay: Half inhibitory concentration (IC50) against tumor cells, Cell Counting Kit-8; assay type: cell-based; conditions: Homo sapiens, MV4-11, CCK-8, 96 h treatment, read-out: inhibitory activity (IC50, nM) against tumor cells proliferation
Experimental: The tumor cells used herein were cultured in a cell culture medium listed in table A at 37° C. in an incubator with 5% CO2.
After the cells were treated with the compounds of the present disclosure for a period of time, the cell viability detection reagent was added to the culture medium for cell viability assessment according to the instructions provided with the CCK-8 kit. […] The growth inhibition of the compounds of the present disclosure on cells was plotted by Prism Graphpad software, and the IC50 values of the compounds of the present disclosure were calculated therefrom.

IKZF1 = molecular target: T4, IKZF1 (Homo sapiens, UniProt Q13422+Q96SW2); assay: Western-blot assay, substrate protein in hPBMCs; assay type: cell-based; conditions: hPBMC cells, 24 hours, tested at 50 nM and 500 nM, table does not say which
T4 construct: endogenous in cells; host or cells: human PBMCs (Milecell Biotechnologies)
T4 sequence (Q13422 whole entry): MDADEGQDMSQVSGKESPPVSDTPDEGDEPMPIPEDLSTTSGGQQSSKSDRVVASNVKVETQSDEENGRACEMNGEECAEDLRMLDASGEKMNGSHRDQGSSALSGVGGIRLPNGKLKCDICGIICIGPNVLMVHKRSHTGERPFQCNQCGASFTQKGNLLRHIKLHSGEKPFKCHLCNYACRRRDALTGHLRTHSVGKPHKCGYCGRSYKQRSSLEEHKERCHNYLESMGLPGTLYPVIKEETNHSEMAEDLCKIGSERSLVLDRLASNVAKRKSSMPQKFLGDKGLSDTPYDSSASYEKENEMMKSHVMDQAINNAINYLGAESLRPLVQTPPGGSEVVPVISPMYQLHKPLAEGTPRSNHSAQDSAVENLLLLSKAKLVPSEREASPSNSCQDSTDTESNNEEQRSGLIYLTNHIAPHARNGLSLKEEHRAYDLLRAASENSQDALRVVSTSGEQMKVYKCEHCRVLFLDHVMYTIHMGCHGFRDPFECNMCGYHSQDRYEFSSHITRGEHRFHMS
T4 sequence (Q96SW2 whole entry): as the sequence (Q96SW2 whole entry) above
T4 sequence (Q16531 whole entry partner): as the sequence (Q16531 whole entry partner) above
How it was run: (§2)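 hPBMCs (1×10^6 cells/mL) exposed 24 h to compound at 50 nM and 500 nM, lysed, and probed by Western blot. Band grayscale normalized to internal control gives % protein remaining versus DMSO; DC50 from concentration-response fit at half DMSO band intensity.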

IKZF3 = molecular target: T5, IKZF3 (Homo sapiens, UniProt Q96SW2+Q9UKT9); assay: Western-blot assay, substrate protein in hPBMCs; assay type: cell-based; conditions: hPBMC cells, 24 hours, tested at 50 nM and 500 nM, table does not say which
T5 construct: endogenous in cells; host or cells: human PBMCs (Milecell Biotechnologies)
T5 sequence (Q9UKT9 whole entry): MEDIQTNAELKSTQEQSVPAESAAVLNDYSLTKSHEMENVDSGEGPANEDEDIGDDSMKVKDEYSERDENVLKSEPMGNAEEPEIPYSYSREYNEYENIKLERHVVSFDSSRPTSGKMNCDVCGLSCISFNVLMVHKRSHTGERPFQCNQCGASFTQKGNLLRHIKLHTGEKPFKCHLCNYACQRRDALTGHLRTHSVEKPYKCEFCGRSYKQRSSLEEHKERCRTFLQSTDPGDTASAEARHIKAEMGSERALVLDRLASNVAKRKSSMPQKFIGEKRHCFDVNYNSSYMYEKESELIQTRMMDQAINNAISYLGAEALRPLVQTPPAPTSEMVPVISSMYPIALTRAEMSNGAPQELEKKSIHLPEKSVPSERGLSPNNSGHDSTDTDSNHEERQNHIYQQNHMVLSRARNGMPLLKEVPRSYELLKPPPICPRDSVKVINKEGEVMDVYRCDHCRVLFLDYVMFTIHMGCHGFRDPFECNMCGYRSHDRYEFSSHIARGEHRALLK
T5 sequence (Q96SW2 whole entry): as the sequence (Q96SW2 whole entry) above
T5 sequence (Q16531 whole entry partner): as the sequence (Q16531 whole entry partner) above
How it was run: as §2

GSPT1 = molecular target: T6, GSPT1 (Homo sapiens, UniProt P15170+Q96SW2); assay: Western-blot assay, substrate protein in hPBMCs; assay type: cell-based; conditions: hPBMC cells, 24 hours, tested at 50 nM and 500 nM, table does not say which
T6 construct: endogenous in cells; host or cells: human PBMCs (Milecell Biotechnologies)
T6 sequence (P15170 whole entry): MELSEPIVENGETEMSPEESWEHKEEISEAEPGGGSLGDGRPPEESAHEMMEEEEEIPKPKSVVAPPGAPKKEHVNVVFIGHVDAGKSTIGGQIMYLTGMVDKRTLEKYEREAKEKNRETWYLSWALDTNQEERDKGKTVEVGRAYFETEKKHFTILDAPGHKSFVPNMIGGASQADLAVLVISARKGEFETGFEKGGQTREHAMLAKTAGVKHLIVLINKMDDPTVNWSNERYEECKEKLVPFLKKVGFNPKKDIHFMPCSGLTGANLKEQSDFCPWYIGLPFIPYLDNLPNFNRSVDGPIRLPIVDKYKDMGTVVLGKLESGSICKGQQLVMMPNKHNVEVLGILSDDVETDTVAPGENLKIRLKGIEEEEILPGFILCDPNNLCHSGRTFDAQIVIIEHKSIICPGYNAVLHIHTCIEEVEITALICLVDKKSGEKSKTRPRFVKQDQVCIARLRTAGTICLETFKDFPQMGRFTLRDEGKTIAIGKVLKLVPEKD
T6 sequence (Q96SW2 whole entry): as the sequence (Q96SW2 whole entry) above
T6 sequence (Q16531 whole entry partner): as the sequence (Q16531 whole entry partner) above
How it was run: as §1

CK1α = molecular target: T7, CK1α (Homo sapiens, UniProt P48729+Q96SW2); assay: Western-blot assay, substrate protein in hPBMCs; assay type: cell-based; conditions: hPBMC cells, 24 hours, tested at 50 nM and 500 nM, table does not say which
T7 construct: endogenous in cells; host or cells: human PBMCs (Milecell Biotechnologies)
T7 sequence (P48729 whole entry): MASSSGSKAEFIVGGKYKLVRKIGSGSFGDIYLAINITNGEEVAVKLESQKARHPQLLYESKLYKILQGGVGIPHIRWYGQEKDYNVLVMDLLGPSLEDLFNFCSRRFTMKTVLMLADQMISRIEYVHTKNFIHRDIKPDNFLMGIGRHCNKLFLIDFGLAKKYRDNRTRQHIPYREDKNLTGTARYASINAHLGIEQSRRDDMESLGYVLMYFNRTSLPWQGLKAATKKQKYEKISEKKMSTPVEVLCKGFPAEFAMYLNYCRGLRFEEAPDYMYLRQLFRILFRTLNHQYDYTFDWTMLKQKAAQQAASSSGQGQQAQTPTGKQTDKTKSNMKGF
T7 sequence (Q96SW2 whole entry): as the sequence (Q96SW2 whole entry) above
T7 sequence (Q16531 whole entry partner): as the sequence (Q16531 whole entry partner) above
How it was run: as §1

T1 sequence (Q96SW2 whole entry): as the sequence (Q96SW2 whole entry) above

Structure (SMILES)	pIC50 [1]	substrate protein remaining % (IKZF2)	substrate protein remaining % (Wee1)	IC50 (MV-4-11)	substrate protein remaining % (IKZF1)	substrate protein remaining % (IKZF3)	substrate protein remaining % (GSPT1)	substrate protein remaining % (CK1α)
CC1(C)CCC(C(=O)N2CCC3(CC2)CC(Sc2ccc4c(c2)CN(C2CCC(=O)NC2=O)C4=O)C3)=C(c2ccc(Cl)cc2)C1 (stereo not drawn) [GT-06918, 3-(5-((7-(4′-chloro-5,5-dimethyl-3,4,5,6-tetrahydro-[1,1′-biphenyl]-2-carbonyl)-7-azaspiro[3.5]nonan-2-yl)thio)-1-oxoisoindolin-2-yl)piperidine-2,6-dione]	6.00 to 6.30	A (0%≤ substrate protein remaining % ≤80%)	A (0%≤ substrate protein remaining % ≤80%)	100 to 500 nM	A (0%≤ substrate protein remaining % ≤80%)	A (0%≤ substrate protein remaining % ≤80%)	–	–
O=C1CCC(N2Cc3cc(SC4CCCN(C(c5ccccc5)c5ccccc5)CC4)ccc3C2=O)C(=O)N1 (stereo not drawn) [GT-06645, 3-(5-((1-benzhydrylazepan-4-yl)thio)-1-oxoisoindolin-2-yl)piperidine-2,6-dione]	> 6.30	–	–	500 to 1000 nM	–	–	A (0%≤ substrate protein remaining % ≤80%)	–
O=C1CCC(N2Cc3cc(OC4CCCN(C(=O)c5ccccc5-c5ccc(Cl)cc5)CC4)ccc3C2=O)C(=O)N1 (stereo not drawn) [GT-06935, 3-(5-((1-(4′-chloro-[1,1′-biphenyl]-2-carbonyl)azepan-4-yl)oxy)-1-oxoisoindolin-2-yl)piperidine-2,6-dione]	> 6.30	–	A (0%≤ substrate protein remaining % ≤80%)	100 to 500 nM	–	–	A (0%≤ substrate protein remaining % ≤80%)	A (0%≤ substrate protein remaining % ≤80%)
CC1(C)CCC(CN2CCC(Oc3ccc4c(c3)CN(C3CCC(=O)NC3=O)C4=O)C2)=C(c2ccc(Cl)cc2)C1 (stereo not drawn) [GT-06815, 3-(5-((1-((4′-chloro-5,5-dimethyl-3,4,5,6-tetrahydro-[1,1′-biphenyl]-2-yl)methyl)pyrrolidin-3-yl)oxy)-1-oxoisoindolin-2-yl)piperidine-2,6-dione]	5.72 to 6.00	A (0%≤ substrate protein remaining % ≤80%)	A (0%≤ substrate protein remaining % ≤80%)	500 to 1000 nM	A (0%≤ substrate protein remaining % ≤80%)	A (0%≤ substrate protein remaining % ≤80%)	A (0%≤ substrate protein remaining % ≤80%)	A (0%≤ substrate protein remaining % ≤80%)
CC1(C)CCC(CN2CCC3(CCC(Sc4ccc5c(c4)CN(C4CCC(=O)NC4=O)C5=O)CC3)CC2)=C(c2ccc(Cl)cc2)C1 (stereo not drawn) [GT-06874, 3-(5-((3-((4′-chloro-5,5-dimethyl-3,4,5,6-tetrahydro-[1,1′-biphenyl]-2-yl)methyl)-3-azaspiro[5.5]undecan-9-yl)thio)-1-oxoisoindolin-2-yl)piperidine-2,6-dione]	5.72 to 6.00	A (0%≤ substrate protein remaining % ≤80%)	A (0%≤ substrate protein remaining % ≤80%)	100 to 500 nM	–	A (0%≤ substrate protein remaining % ≤80%)	A (0%≤ substrate protein remaining % ≤80%)	A (0%≤ substrate protein remaining % ≤80%)
CC1(C)CCC(CN2CCC(Sc3ccc4c(c3)CN(C3CCC(=O)NC3=O)C4=O)C(F)(F)C2)=C(c2ccc(Cl)cc2)C1 (stereo not drawn) [GT-06960, 3-(5-((1-((4′-chloro-5,5-dimethyl-3,4,5,6-tetrahydro-[1,1′-biphenyl]-2-yl)methyl)-3,3-difluoropiperidin-4-yl)thio)-1-oxoisoindolin-2-yl)piperidine-2,6-dione]	–	–	A (0%≤ substrate protein remaining % ≤80%)	500 to 1000 nM	–	–	A (0%≤ substrate protein remaining % ≤80%)	A (0%≤ substrate protein remaining % ≤80%)
O=C1CCC(N2Cc3cc(OC4CC5(CCN(C(c6ccccc6)c6ccccc6)CC5)C4)ccc3C2=O)C(=O)N1 (stereo not drawn) [GT-06956, 3-(5-((7-benzhydryl-7-azaspiro[3.5]nonan-2-yl)oxy)-1-oxoisoindolin-2-yl)piperidine-2,6-dione]	> 6.30	A (0%≤ substrate protein remaining % ≤80%)	A (0%≤ substrate protein remaining % ≤80%)	500 to 1000 nM	A (0%≤ substrate protein remaining % ≤80%)	A (0%≤ substrate protein remaining % ≤80%)	–	A (0%≤ substrate protein remaining % ≤80%)
O=C1CCC(N2Cc3cc(OC4CCCN(C(c5ccccc5)c5ccccc5)CC4)ccc3C2=O)C(=O)N1 (stereo not drawn) [GT-06928, 3-(5-((1-benzhydrylazepan-4-yl)oxy)-1-oxoisoindolin-2-yl)piperidine-2,6-dione]	6.00 to 6.30	A (0%≤ substrate protein remaining % ≤80%)	A (0%≤ substrate protein remaining % ≤80%)	10 to 50 nM	–	–	–	–
O=C1CCC(N2Cc3cc(OC4CC5CN(C(c6ccccc6)c6ccccc6)CC5C4)ccc3C2=O)C(=O)N1 (stereo not drawn) [GT-06955, 3-(5-((2-benzhydryloctahydro-cyclopenta[c]pyrrol-5-yl)oxy)-1-oxoisoindolin-2-yl)piperidine-2,6-dione]	> 6.30	A (0%≤ substrate protein remaining % ≤80%)	–	50 to 100 nM	A (0%≤ substrate protein remaining % ≤80%)	–	–	A (0%≤ substrate protein remaining % ≤80%)
O=C1CCC(N2Cc3cc(OC4CCCN(Cc5ccccc5-c5ccc(Cl)cc5)CC4)ccc3C2=O)C(=O)N1 (stereo not drawn) [GT-06934, 3-(5-((1-((4′-chloro-[1,1′-biphenyl]-2-yl)methyl)azepan-4-yl)oxy)-1-oxoisoindolin-2-yl)piperidine-2,6-dione]	> 6.30	A (0%≤ substrate protein remaining % ≤80%)	A (0%≤ substrate protein remaining % ≤80%)	100 to 500 nM	–	–	–	A (0%≤ substrate protein remaining % ≤80%)

Reference: patent publication US20260207578A1, “COMPOUND BASED ON SULFUR/OXYGEN SUBSTITUTED GLUTARIMIDE-BASED ISOINDOLINONE SKELETON AND USE THEREOF” (Gluetacs Therapeutics (Shanghai) Co., LTD., priority 2022, published 2026)
